# Columns and labels:
# [1] = molecular target: T1, Androgen Receptor of Rat's Prostate (Rattus norvegicus, UniProt P15207); assay: Relative affinity of the bond, androgen receptor (tritiated testosterone displacement); type: binding; details: for Relative affinity of the bond (RAB), Androgen, 0.5 H: incubation 0.5 H at 0° C.; for Relative affinity of the bond (RAB), Androgen, 0.5 H / Relative affinity of the bond (RAB), Androgen, 25 H: RAB=100(CH)/(CX); for Relative affinity of the bond (RAB), Androgen, 25 H: incubation 25 H at 0° C.
# T1 construct: Their prostates were removed, weighed and homogenized at 0° C; from tissue; host or cells: prostate cytosol (105,000 g supernatant) of castrated male Sprague-Dawley rats
# T1 sequence (P15207 1-902): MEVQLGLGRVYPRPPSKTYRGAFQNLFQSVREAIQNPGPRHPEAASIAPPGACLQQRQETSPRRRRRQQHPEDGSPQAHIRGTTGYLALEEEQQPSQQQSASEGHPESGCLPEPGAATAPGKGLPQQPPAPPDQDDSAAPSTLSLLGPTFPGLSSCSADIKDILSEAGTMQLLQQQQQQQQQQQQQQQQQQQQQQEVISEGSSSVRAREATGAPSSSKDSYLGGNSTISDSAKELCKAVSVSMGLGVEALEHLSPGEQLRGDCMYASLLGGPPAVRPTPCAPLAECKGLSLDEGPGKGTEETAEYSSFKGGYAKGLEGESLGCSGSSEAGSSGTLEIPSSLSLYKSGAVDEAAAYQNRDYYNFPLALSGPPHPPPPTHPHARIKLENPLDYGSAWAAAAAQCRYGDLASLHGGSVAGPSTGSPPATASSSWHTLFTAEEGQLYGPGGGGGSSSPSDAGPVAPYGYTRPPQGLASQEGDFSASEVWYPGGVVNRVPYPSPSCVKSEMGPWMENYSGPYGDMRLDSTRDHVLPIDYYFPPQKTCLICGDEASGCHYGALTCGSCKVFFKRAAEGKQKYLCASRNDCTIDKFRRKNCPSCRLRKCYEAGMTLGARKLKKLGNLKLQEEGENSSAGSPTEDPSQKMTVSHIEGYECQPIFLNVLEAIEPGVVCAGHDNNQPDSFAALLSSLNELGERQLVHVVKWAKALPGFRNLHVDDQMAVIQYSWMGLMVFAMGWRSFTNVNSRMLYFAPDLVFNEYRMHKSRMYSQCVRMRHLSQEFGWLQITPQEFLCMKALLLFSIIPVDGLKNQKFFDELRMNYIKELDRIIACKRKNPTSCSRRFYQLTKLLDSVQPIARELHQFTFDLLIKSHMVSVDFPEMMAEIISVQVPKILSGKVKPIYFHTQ
# Experimental: Androgen Receptor of Rat's Prostate:
# Male Sprague Dawley EPOS rats weighing 160 to 200 g were castrated and 24 hours after the castration, the animals were killed. Their prostates were removed, weighed and homogenized at 0° C. using a Potter teflon-glass in a TS buffered solution (Tris 10 mM, saccharose 0.25 M, HCl pH 7.4) (1 g of tissue for 5 ml of TS). The homogenate was ultracentrifuged (105,000 g for 60 minutes) at 0° C. and aliquots of the supernatant were incubated at 0° C. for an incubation time E with a constant concentration (T) of tritiated testosterone in the presence of increasing concentrations (0-1000.10^−9 M) either of cold testosterone or of the product to be tested. The concentration of bound tritiated testosterone (B) was then measured in each incubate by the adsorption on dextran carbon technique.
# (§1) Calculation of the Relative Affinty of the Bond
# (§2) The calculation of the Relative Affinity of the Bond (RAB) was identical for all the receptors. The following 2 curves were traced; the percentage of the bound tritiated hormone [formula]
# (§3) was a function of the logarithm of the concentration of the cold reference hormone and [formula]
# (§4) as a function of the logarithm of the concentration of the cold product tested.
# (§5) One determined the straight line of the equation [formula]
# (§6) The intersections of the straight line I50 and of the curves make it possible to evaluate the concentrations of the cold reference hormone (CH) and of the tested cold product (CX) which inhibit to an extend of 50% the binding of the tritiated hormone upon the receptor. The relative affinity of the bond (RAB) of the tested product is determined by the equation
# [2] = molecular target: T2, Estrogenic Receptor of Mouse Uterus (Mus musculus, UniProt P19785); assay: Relative affinity of the bond, estrogen receptor (tritiated estradiol displacement); type: binding; details: for Relative affinity of the bond (RAB), Oestrogen, 2 H: incubation 2 H at 0° C.; for Relative affinity of the bond (RAB), Oestrogen, 2 H / Relative affinity of the bond (RAB), Oestrogen, 6 H: RAB=100(CH)/(CX); for Relative affinity of the bond (RAB), Oestrogen, 6 H: incubation 6 H (second time); for affinity for the estrogen receptors: at the second time (incubation)
# T2 construct: their uteri were removed, then homogenized at 0° C; from tissue; host or cells: uterine cytosol (105,000 g supernatant) of immature female mice
# T2 sequence (P19785 1-599): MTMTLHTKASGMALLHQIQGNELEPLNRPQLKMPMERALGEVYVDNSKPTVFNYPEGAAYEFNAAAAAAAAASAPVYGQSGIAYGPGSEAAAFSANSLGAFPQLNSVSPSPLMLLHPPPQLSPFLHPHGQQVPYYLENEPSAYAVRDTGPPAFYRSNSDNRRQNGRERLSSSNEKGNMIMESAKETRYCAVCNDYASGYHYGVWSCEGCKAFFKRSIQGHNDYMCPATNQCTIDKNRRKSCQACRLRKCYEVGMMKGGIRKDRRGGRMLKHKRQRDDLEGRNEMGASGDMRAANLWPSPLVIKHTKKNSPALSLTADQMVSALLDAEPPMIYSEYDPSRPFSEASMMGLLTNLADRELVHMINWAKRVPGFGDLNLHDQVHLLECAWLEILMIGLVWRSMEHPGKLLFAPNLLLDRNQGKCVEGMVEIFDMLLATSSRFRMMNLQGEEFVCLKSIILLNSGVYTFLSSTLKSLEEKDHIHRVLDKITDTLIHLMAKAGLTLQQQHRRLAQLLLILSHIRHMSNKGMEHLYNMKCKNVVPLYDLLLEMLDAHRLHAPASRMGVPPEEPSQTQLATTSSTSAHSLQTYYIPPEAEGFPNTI
# Experimental: Estrogenic Receptor of Mouse Uterus:
# Impuberal female mice aged from 18 to 21 days were killed and their uteri were removed, then homogenized at 0° C. with the aid of a Potter teflon-glass in a TS buffered solution (10 mM Tris, 0.25 M saccharose, HCL pH 7.4) (1 g of tissue for 25 ml of TS). The homogenate was ultracentrifuged (105,000 g×90 min) at 0° C. and aliquots of the supernatant were incubated at 0° C. or at 25° C. for a time (t) with a constant concentration (T) of tritiated estradiol in the presence of increasing concentrations (0-1000×10^−9 M) either of cold estradiol, or of the cold product to be tested. The concentration (B) of bound tritiated estradiol was measured in each incubate by the technique of adsorption on dextran carbon.
# as §1, §2, §3, §4, §5, §6
compound,measurement,setting,value
"CCCCN(C)C(=O)CCCCCCCCCCC[C@H]1C[C@]2(C)[C@@H](O)CC[C@H]2[C@@H]2CCc3cc(O)ccc3[C@@H]12 [Example 24, N-butyl-3,17β-dihydroxy-N-methyl-11β-Δ^1,3,5(10)-estratriene dodecanamide]","Relative affinity of the bond (RAB), Androgen, 0.5 H",[1],0
same,"Relative affinity of the bond (RAB), Androgen, 25 H",[1],0.4
same,"Relative affinity of the bond (RAB), Oestrogen, 2 H",[2],0.02
same,"Relative affinity of the bond (RAB), Oestrogen, 6 H",[2],13
"N-butyl-3,17β-dihydroxy-N-methyl-19-nor-11β-Δ^1,3,5(10)-pregnatrien-20-yn undecanamide [Example 21]","Relative affinity of the bond (RAB), Androgen, 0.5 H",[1],0
same,"Relative affinity of the bond (RAB), Androgen, 25 H",[1],0
same,"Relative affinity of the bond (RAB), Oestrogen, 2 H",[2],0.06
same,"Relative affinity of the bond (RAB), Oestrogen, 6 H",[2],7.4
"CN(C)CCN(C)C(=O)CCCCCCCCCC[C@H]1C[C@]2(C)[C@@H](O)CC[C@H]2[C@@H]2CCC3=CC(=O)CCC3=C12 [Example 19, N-[2-(dimethylamino)-ethyl]-17β-hydroxy-N-methyl-3-oxo-11β-Δ^4,9-estradiene undecanamide]",affinity for the androgen receptor,[1],moderate affinity
same,"Relative affinity of the bond (RAB), Androgen, 0.5 H",[1],11
same,"Relative affinity of the bond (RAB), Androgen, 25 H",[1],11
same,"Relative affinity of the bond (RAB), Oestrogen, 2 H",[2],0.3
same,"Relative affinity of the bond (RAB), Oestrogen, 6 H",[2],0.8
"CC#C[C@]1(O)CC[C@H]2[C@@H]3CCC4=CC(=O)CCC4=C3[C@@H](CCCCCCCCCCC(=O)NCCCC)C[C@@]21C [Example 22, N-butyl-17β-hydroxy-3-oxo-17α-(1-propynyl)-11β-Δ^4,9-estradiene undecanamide]","Relative affinity of the bond (RAB), Androgen, 0.5 H",[1],0.0
same,"Relative affinity of the bond (RAB), Androgen, 25 H",[1],0
same,"Relative affinity of the bond (RAB), Oestrogen, 2 H",[2],0.01
same,"Relative affinity of the bond (RAB), Oestrogen, 6 H",[2],0.01
"CC(C)N(C)C(=O)CCCCCCCCCC[C@H]1C[C@]2(C)[C@@H](O)CC[C@H]2[C@@H]2CCc3cc(O)ccc3[C@@H]12 [Example 16, 3,17β-dihydroxy-N-methyl-N-isopropyl-11β-Δ^1,3,5(10)-estratriene undecanamide]","Relative affinity of the bond (RAB), Androgen, 0.5 H",[1],0
same,"Relative affinity of the bond (RAB), Androgen, 25 H",[1],0.4
same,affinity for the estrogen receptors,[2],marked affinity
same,"Relative affinity of the bond (RAB), Oestrogen, 2 H",[2],0.6
same,"Relative affinity of the bond (RAB), Oestrogen, 6 H",[2],60
"CCCCN(C)C(=O)CCCCCCCCCC[C@H]1C[C@]2(C)[C@@H](O)CC[C@H]2[C@@H]2CCc3cc(O)ccc3[C@@H]12 [Example 13, N-Butyl-3,17β-Dihydroxy-N-Methyl-11β-Δ^1,3,5(10)-Estratriene-Undecanamide]","Relative affinity of the bond (RAB), Androgen, 0.5 H",[1],0
same,"Relative affinity of the bond (RAB), Androgen, 25 H",[1],0.12
same,affinity for the estrogen receptors,[2],marked affinity
same,"Relative affinity of the bond (RAB), Oestrogen, 2 H",[2],0.13
same,"Relative affinity of the bond (RAB), Oestrogen, 6 H",[2],27
"CN(Cc1ccccc1)C(=O)CCCCCCCCCC[C@H]1C[C@]2(C)[C@@H](O)CC[C@H]2[C@@H]2CCC3=CC(=O)CCC3=C12 [Example 17, N-benzyl-17β-hydroxy-N-methyl-3-oxo-11β-Δ^4,9-estradiene undecanamide]","Relative affinity of the bond (RAB), Androgen, 0.5 H",[1],0.12
same,"Relative affinity of the bond (RAB), Androgen, 25 H",[1],1.2
same,"Relative affinity of the bond (RAB), Oestrogen, 2 H",[2],0.1
same,"Relative affinity of the bond (RAB), Oestrogen, 6 H",[2],0.01

# Source: patent publication US6790971B1, “19-Nor-steroids” (Aventis Pharma S.A., priority 1989, dated 2004)
